Experimental data as given in ChEMBL document CHEMBL1909046, “DrugMatrix in vitro pharmacology data”.

How the values were obtained:
[1] = molecular target: Sodium-dependent noradrenaline transporter (Homo sapiens, UniProt P23975); experiment: DRUGMATRIX: Norepinephrine Transporter radioligand binding (ligand: [125I] RTI-55); type: cell membranes, MDCK, Membrane; settings: Not Active = under 50% inhibition at 10 µM
[2] = molecular target: Aldo-keto reductase family 1 member B1 (Rattus norvegicus, UniProt P07943); experiment: biochemical; type: tissue-based, Lens of camera-type eye;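 further: inhibition of aldose reductase enzyme activity, measured with DL-glyceraldehyde as the substrate; in other assays of this panel Not Active means under 50% inhibition at 10 µM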
B2 bradykinin receptor = molecular target: T1, B2 bradykinin receptor (Homo sapiens, UniProt P30411); type: cell membranes, Membrane; settings: chem-1; further: in other assays of this panel Not Active means under 50% inhibition at 10 µM
T1 sequence (P30411 whole entry): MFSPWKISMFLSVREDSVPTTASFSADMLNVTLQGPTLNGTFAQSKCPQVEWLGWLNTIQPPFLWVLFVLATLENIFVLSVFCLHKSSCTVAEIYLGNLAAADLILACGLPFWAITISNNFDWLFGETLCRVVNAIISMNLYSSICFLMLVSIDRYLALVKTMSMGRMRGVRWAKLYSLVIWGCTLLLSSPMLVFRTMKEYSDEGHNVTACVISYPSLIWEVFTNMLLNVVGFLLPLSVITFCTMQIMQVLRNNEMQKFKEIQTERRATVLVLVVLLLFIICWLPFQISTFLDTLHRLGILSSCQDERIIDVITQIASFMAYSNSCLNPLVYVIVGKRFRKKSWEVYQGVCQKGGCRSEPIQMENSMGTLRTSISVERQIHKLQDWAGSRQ

[3] = molecular target: T2, 5-hydroxytryptamine receptor 2C (Homo sapiens, UniProt P28335); experiment: DRUGMATRIX: Serotonin (5-Hydroxytryptamine) 5-HT2C radioligand binding (ligand: [3H] Mesulergine); type: cell membranes, CHO-K1, Membrane; settings: cho-k1; Not Active = under 50% inhibition at 10 µM
T2 sequence (P28335 whole entry): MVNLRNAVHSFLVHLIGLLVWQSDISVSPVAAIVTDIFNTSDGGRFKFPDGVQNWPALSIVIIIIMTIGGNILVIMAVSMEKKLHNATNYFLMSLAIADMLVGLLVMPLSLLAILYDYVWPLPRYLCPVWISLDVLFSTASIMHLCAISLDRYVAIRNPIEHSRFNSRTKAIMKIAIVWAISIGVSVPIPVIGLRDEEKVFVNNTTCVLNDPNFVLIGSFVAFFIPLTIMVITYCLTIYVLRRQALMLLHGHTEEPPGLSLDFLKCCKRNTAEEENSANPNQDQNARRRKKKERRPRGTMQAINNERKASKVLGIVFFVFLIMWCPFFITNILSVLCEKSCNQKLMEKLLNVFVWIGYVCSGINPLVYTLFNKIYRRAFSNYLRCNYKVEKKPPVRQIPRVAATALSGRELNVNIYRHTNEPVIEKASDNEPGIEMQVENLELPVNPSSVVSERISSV

[4] = molecular target: T3, Cholecystokinin receptor type A (Homo sapiens, UniProt P32238); type: cell membranes, Membrane; settings: 1321-n1; further: in other assays of this panel Not Active means under 50% inhibition at 10 µM
T3 sequence (P32238 whole entry): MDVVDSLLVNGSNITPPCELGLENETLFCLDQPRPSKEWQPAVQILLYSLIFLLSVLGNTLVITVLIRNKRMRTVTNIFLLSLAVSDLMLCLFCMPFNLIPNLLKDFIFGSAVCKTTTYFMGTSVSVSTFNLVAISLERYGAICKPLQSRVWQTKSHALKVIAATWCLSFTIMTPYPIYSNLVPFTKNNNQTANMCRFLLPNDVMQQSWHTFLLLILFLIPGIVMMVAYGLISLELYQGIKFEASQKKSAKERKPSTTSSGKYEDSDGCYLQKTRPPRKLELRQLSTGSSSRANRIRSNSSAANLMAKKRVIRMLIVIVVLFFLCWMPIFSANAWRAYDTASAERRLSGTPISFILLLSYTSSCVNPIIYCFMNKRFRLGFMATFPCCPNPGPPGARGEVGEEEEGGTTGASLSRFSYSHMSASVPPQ

D(4) dopamine receptor = molecular target: T4, D(4) dopamine receptor (Homo sapiens, UniProt P21917); experiment: DRUGMATRIX: Dopamine D4.2 radioligand binding (ligand: [3H] Spiperone); type: cell membranes, Membrane; settings: cho-k1; Not Active = under 50% inhibition at 10 µM
T4 sequence (P21917 whole entry): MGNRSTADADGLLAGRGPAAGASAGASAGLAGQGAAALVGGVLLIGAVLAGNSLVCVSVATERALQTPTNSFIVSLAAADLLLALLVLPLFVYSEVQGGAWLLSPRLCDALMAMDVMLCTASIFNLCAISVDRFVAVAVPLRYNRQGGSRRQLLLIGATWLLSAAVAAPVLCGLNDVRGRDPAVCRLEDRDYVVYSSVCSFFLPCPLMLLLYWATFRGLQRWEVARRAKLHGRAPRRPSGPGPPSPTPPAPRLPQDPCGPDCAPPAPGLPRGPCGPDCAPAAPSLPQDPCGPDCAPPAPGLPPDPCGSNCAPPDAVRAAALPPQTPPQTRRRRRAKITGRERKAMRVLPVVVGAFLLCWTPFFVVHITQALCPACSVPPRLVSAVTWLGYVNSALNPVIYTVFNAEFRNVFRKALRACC

[5] = molecular target: Sodium-dependent dopamine transporter (Homo sapiens, UniProt Q01959); experiment: DRUGMATRIX: Dopamine Transporter radioligand binding (ligand: [125I] RTI-55); type: cell membranes, CHO-K1, Membrane; settings: Not Active = under 50% inhibition at 10 µM
[6] = DRUGMATRIX: Imidazoline I2, Central radioligand binding (ligand: [3H] Idazoxan); type: cell membranes, Rattus norvegicus, Wistar, Cerebral cortex, Membrane; settings: Not Active = under 50% inhibition at 10 µM
[7] = molecular target: Protein kinase C alpha type (Homo sapiens, UniProt P17252); type: cell-based; settings: sf9;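 further: inhibition of PKCalpha kinase activity measured in an enzyme assay with histone as the phosphorylation substrate; in other assays of this panel Not Active means under 50% inhibition at 10 µM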
[8] = molecular target: Protein phosphatase 3 catalytic subunit alpha (Homo sapiens, UniProt Q08209); set-up: species or system Escherichia coli

Sequence of Sodium-dependent dopamine transporter (Q01959 whole entry): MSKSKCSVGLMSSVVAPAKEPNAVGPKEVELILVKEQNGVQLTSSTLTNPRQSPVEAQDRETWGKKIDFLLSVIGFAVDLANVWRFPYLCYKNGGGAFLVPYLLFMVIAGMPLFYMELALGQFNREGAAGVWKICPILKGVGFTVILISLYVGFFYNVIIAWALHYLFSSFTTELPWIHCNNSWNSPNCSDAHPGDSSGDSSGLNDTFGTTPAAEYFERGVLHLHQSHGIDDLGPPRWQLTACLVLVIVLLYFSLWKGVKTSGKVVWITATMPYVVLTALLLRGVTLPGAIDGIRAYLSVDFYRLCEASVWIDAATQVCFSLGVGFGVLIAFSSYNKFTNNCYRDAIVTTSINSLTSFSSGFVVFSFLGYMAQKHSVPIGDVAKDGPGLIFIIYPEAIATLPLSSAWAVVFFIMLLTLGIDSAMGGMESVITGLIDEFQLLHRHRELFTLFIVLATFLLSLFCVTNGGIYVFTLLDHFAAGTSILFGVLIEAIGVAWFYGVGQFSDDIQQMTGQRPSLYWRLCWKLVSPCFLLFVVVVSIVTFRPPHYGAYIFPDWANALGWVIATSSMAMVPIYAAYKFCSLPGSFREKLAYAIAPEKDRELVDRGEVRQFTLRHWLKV
Sequence of Sodium-dependent noradrenaline transporter (P23975 whole entry): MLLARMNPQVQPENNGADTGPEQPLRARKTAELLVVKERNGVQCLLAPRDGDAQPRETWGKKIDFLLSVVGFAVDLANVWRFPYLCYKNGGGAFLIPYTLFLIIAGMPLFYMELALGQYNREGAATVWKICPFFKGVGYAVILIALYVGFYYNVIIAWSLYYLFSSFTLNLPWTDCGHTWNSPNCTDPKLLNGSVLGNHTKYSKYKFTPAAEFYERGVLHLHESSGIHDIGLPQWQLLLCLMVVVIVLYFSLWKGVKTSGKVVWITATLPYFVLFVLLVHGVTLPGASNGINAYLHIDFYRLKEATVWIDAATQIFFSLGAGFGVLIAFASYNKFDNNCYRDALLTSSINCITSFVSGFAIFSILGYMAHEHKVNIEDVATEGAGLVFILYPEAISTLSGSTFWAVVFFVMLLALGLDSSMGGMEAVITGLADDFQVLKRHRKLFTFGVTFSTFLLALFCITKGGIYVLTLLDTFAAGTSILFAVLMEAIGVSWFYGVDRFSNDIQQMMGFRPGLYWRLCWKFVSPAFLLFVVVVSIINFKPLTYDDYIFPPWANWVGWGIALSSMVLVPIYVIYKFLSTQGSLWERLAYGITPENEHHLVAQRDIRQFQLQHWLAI

SMILES	IC50 ([1]; mdck)	IC50 [2]	IC50 (B2 bradykinin receptor)	IC50 [3]	IC50 [4]	IC50 (D(4) dopamine receptor)	IC50 ([5]; cho-k1)	IC50 [6]	Ki [6]	IC50 [7]	IC50 [8]	Ki (B2 bradykinin receptor)	IC50 ([5]; read-out: IC50)	Ki ([5]; read-out: Ki)	IC50 ([1]; read-out: IC50)	Ki ([1]; read-out: Ki)
N[C@H](CSC(=S)NCc1ccccc1)C(=O)O	Not Active	Not Active	Not Active	Not Active	Not Active	Not Active	Not Active	Not Active	Not Active	Not Active	Not Active					
Cc1cc(C)nc(NS(=O)(=O)c2ccc(N)cc2)n1 [SULFAMETHAZINE]	Not Active	Not Active	Not Active	Not Active	Not Active	Not Active	Not Active	Not Active	Not Active	Not Active	Not Active					
Cc1cccc(Nc2ccncc2S(=O)(=O)NC(=O)NC(C)C)c1 [TORSEMIDE]	Not Active	Not Active		Not Active	Not Active	Not Active	Not Active	Not Active	Not Active	Not Active	Not Active	Not Active				
O=C1CCC(N2C(=O)c3ccccc3C2=O)C(=O)N1 (stereo not given) [THALIDOMIDE]	Not Active	Not Active	Not Active	Not Active	Not Active	Not Active	Not Active	Not Active	Not Active	Not Active	Not Active					
CC(C)CC(N(C)C)C1(c2ccc(Cl)cc2)CCC1 (stereo not given) [SIBUTRAMINE]		Not Active	Not Active	Not Active	Not Active	Not Active		Not Active	Not Active	Not Active	Not Active		632 nM	502 nM		
[H]/N=C(/N)N[C@H]1[C@H](O)[C@@H](O)[C@H](O[C@@H]2O[C@@H](C)[C@](O)(C=O)[C@H]2O[C@@H]2O[C@@H](CO)[C@H](O)[C@@H](O)[C@@H]2NC)[C@@H](N/C(N)=N\[H])[C@@H]1O [STREPTOMYCIN]	Not Active	Not Active	Not Active	Not Active	Not Active	Not Active	Not Active	Not Active	Not Active	Not Active	Not Active					
CC(C)C[C@H](NC(=O)[C@@H](O)[C@H](N)Cc1ccccc1)C(=O)O [UBENIMEX]	Not Active	Not Active	Not Active	Not Active	Not Active	Not Active	Not Active	Not Active	Not Active	Not Active	Not Active					
CC(C)NCC(O)COc1cccc2ccccc12 (stereo not given) [PROPRANOLOL]		Not Active	Not Active		Not Active	Not Active				Not Active	Not Active					
Cc1onc(-c2ccccc2)c1-c1ccc(S(N)(=O)=O)cc1 [VALDECOXIB]		Not Active	Not Active	Not Active	Not Active	Not Active	Not Active	Not Active	Not Active	Not Active	Not Active				2930 nM	2900 nM
